Results: patent US5451569A, “Pulmonary drug delivery system” (Hong Kong University of Science and Technology R & D …, priority 1994, dated 1995)

Legend:
rats [1] = assay: Urine osmolarity and urine volume after tracheal instillation of AVP during 5% glucose infusion; type: in vivo, rat; settings: 0.6 units AVP by tracheal instillation after 30 minutes of 5% glucose infusion at 10 ml/hr
Procedure: The trachea was cannulated for drug delivery.
This example illustrates the effect of surfactant on pulmonary vasopressin (AVP) absorption. The experimental details were as follows. 5% glucose was infused at 10 ml/hr throughout the experiment. Urine osmolarity and urine volume resulting from glucose administration alone was contrasted with (1) a delivery of 0.6 units AVP, and (2) delivery of 0.6 units of AVP with 60 μl of surfactant (at a concentration of 40 mg/ml). In (1) and (2) the delivery of AVP and AVP with surfactant was by instillation through the trachea after 30 minutes of glucose infusion which infusion continued. FIGS. 3(a) and (b) show the results in term of urine osmolarity and volume respectively. Infusion of 5% glucose should have the effect of decreasing urine osmolarity and increasing urine volume.

rats [2] = assay: Blood glucose after intravenous or tracheal delivery of insulin in cannulated rats
Procedure: A sufficient number of rats weighing between 350-400 g were selected. In each rat the carotid artery and jugular vein were cannulated for blood sampling and fluid infusion. The trachea was cannulated for drug delivery. Fluids given through the trachea were either in a volume of 100 μl or 200 μl given in two separate doses 30 minutes apart. 40 μl of insulin (at a concentration of 200 units/ml) was mixed with 60 μl of lung surfactant (at a concentration of 40 mg/ml) and was administered by the tracheal route. Insulin without surfactant was administered intravenously to a control sample.

NC(=O)CC[C@@H]1NC(=O)[C@H](Cc2ccccc2)NC(=O)[C@H](Cc2ccc(O)cc2)NC(=O)[C@@H](N)CSSC[C@@H](C(=O)N2CCC[C@H]2C(=O)N[C@@H](CCCN=C(N)N)C(=O)NCC(N)=O)NC(=O)[C@H](CC(N)=O)NC1=O [AVP, vasopressin]
effect on urine osmolarity (rats [1]; FIG. 3(a)): increases urine osmolarity
effect on urine volume (rats [1]; FIG. 3(b)): reduces urine volume

insulin
time after which glucose concentration begins to rise again (rats [2]; intravenous insulin, FIG. 1(a)): approximately 60 mins
intravenous insulin dose equivalent to tracheal delivery of 8 units of insulin (rats [2]; tracheal delivery of 8 units (40 μl of 200 units/ml), hypoglycemic effect, FIG. 1(b)): 0.5 units
share of insulin that enters the bloodstream (rats [2]; tracheal delivery of 8 units, estimated from the equivalent intravenous dose): about 6.25%
duration of hypoglycemic effect (rats [2]; tracheal delivery, over a three hour period, FIG. 1(b)): no significant increase in glucose concentration
